Measured values: patent US20230270804A1, “ANTI-HYPERCHOLESTEROLEMIA COMPOSITION AND A METHOD OF MANUFACTURING THE SAME” (NBI BIOSCIENCES PRIVATE LIMITED, priority 2020, published 2023)

Assays:
Format in all cases: in vivo, Wistar strain albino rats
[1] = Prophylactic study: hematological parameters; conditions: HFD+normal diet; for Lymphocyte / Neutrophils: in % (unit assumed)
Method: Wistar strain albino rats of body weight ranging from 190-225 g were selected for the present study. The temperature and humidity were kept at optimum (22+2° C.; 40-70% and animals were exposed to natural chronological day night cycles. The experiments were carried out in conformity with the Institutional Animal Ethics Committee.
The 6 groups were as follows: • 1. Normal Control • 2.
(§1) 1.5-2 ml blood sample was taken from retino-orbital chamber in vials for biochemical estimations at every 15 days. Investigations performed included detailed Total Cholesterol—TC (mg/dl), Triglyceride—TG (mg/dl), High Density Lipoprotein—HDL-C (mg/dl), Low Density Lipoprotein—LDL-C (mg/dl), Very Low-Density Lipoprotein—VLDL (mg/dl), WBC (10^3/u1), RBC (10^6/u1), Hb (g/dl), PCV (%), Reticulocyte (%), Platelet count 10^5/mm^3, Clotting time (Sec), Neutrophils, Lymphocyte, Monocyte and Eosinophil. The estimations were done with Ecoline kits from Erba Mannheim, ERBA diagnostics Mannheml, Germany using Semi Autoanalyzer RX50 of MicroLabs Instruments and COUNCELL21 of Tulip Diagnostics Pvt. Ltd. Lipid peroxidation (Plasma & Liver), HMG Co-Reductase, Creatine phosphokinase (CPK), Lactate dehydrogenase (LDH), SGOT and SGPT were estimated at the end of both the studies using the kits.

HMG CoA Reductase [2] = target: T1, HMG CoA Reductase (Rattus norvegicus, UniProt P51639); test: Prophylactic study: HMG CoA reductase activity in liver homogenate; conditions: HFD+normal diet, after sacrifice
T1 construct: The tissue homogenate was prepared by homogenizing 1 gm of tissue (liver) with 10 ml of saline arsenate solution; from tissue; host or cells: rat liver homogenate
T1 sequence (P51639 1-887): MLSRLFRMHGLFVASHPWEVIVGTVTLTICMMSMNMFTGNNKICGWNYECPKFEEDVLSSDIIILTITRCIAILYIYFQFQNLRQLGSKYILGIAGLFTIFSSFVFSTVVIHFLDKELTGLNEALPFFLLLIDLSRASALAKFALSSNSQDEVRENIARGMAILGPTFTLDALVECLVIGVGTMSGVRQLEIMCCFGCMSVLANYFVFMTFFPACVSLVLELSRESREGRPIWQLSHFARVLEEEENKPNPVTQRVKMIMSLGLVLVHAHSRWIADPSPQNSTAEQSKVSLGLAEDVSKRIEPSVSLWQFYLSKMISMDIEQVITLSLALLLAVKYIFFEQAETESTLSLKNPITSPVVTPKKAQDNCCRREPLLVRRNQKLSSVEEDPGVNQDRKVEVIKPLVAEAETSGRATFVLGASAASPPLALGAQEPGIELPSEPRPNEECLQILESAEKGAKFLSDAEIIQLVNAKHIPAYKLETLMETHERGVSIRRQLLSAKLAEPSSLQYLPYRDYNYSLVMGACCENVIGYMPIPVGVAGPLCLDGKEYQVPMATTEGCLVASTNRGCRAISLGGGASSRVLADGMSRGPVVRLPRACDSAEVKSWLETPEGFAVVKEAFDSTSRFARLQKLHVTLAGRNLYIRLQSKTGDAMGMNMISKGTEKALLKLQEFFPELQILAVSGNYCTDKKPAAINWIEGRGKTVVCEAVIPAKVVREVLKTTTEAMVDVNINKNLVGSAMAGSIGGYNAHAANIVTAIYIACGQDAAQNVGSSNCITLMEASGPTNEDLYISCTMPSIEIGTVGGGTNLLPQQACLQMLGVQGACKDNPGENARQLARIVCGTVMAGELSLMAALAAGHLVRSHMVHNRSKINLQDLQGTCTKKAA
Method: as §1
(§2) The tissue homogenate was prepared by homogenizing 1 gm of tissue (liver) with 10 ml of saline arsenate solution. Further equal volumes of the fresh 10% tissue homogenate and diluted perchloric acid were mixed and allowed to stand for 5 minute and centrifuge (2000 rpm, 10 minutes). […] The readings were taken after 10 minutes at 540 nm vs. a similarly treated saline/arsenate blank.

HMG CoA Reductase [3] = target: T1, HMG CoA Reductase; test: Therapeutic study: HMG CoA reductase activity in liver homogenate; conditions: after necropsy
Method: as §1, §2

Compound: CC(C)c1c(C(=O)Nc2ccccc2)c(-c2ccccc2)c(-c2ccc(F)cc2)n1CC[C@@H](O)C[C@@H](O)CC(=O)O [Statin, Atorvastatin]
- Clotting time ([1]; day 0): 109.0 ± 1.10 s
- Eosinophil ([1]; day 0): 1.1%
- Hb ([1]; day 0): 11.95 ± 1.10 g/dL
- Monocyte ([1]; day 0): 1.4%
- PCV ([1]; day 0): 42.50 ± 1.80%
- RBC ([1]; day 0): 7.20 ± 0.20 10^6/μl
- Reticulocyte ([1]; day 0): 1.15 ± 0.05%
- WBC ([1]; day 0): 8.90 ± 0.55 10^3/μl
- Lymphocyte ([1]; day 0): 71.5
- Neutrophils ([1]; day 0): 26
- Clotting time ([1]; day 15): 107.45 ± 0.77 s
- Eosinophil ([1]; day 15): 1.3%
- Monocyte ([1]; day 15): 1.4%
- PCV ([1]; day 15): 35.85 ± 1.11%
- Platelet count ([1]; day 15): 905 ± 21.2 10³/µL
- RBC ([1]; day 15): 7.20 ± 0.81 10^6/μl
- Reticulocyte ([1]; day 15): 1.10 ± 0.11%
- WBC ([1]; day 15): 9.79 ± 0.57 10^3/μl
- Lymphocyte ([1]; day 15): 72.7
- Neutrophils ([1]; day 15): 24.6
- Clotting time ([1]; day 30): 110.0 ± 1.0 s
- Eosinophil ([1]; day 30): 1.15%
- Monocyte ([1]; day 30): 1.6%
- Platelet count ([1]; day 30): 1060 ± 23.3 10³/µL
- RBC ([1]; day 30): 7.20 ± 0.20 10^6/μl
- Reticulocyte ([1]; day 30): 1.08 ± 0.10%
- WBC ([1]; day 30): 9.03 ± 0.3 10^3/μl
- Lymphocyte ([1]; day 30): 71.25
- Neutrophils ([1]; day 30): 26
- Clotting time ([1]; day 45): 114.0 ± 1.00 s
- Eosinophil ([1]; day 45): 1.15%
- Hb ([1]; day 45): 12.00 ± 1.20 g/dL
- Monocyte ([1]; day 45): 1.4%
- PCV ([1]; day 45): 42.10 ± 1.30%
- RBC ([1]; day 45): 7.05 ± 0.21 10^6/μl
- Reticulocyte ([1]; day 45): 1.25 ± 0.06%
- WBC ([1]; day 45): 9.00 ± 0.50 10^3/μl
- Lymphocyte ([1]; day 45): 71.45
- Neutrophils ([1]; day 45): 26
- Clotting time ([1]; day 60): 112.0 ± 1.05 s
- Hb ([1]; day 60): 12.20 ± 1.12 g/dL
- PCV ([1]; day 60): 43.10 ± 1.30%
- RBC ([1]; day 60): 7.06 ± 0.31 10^6/μl
- Reticulocyte ([1]; day 60): 1.35 ± 0.06%
- WBC ([1]; day 60): 8.00 ± 0.60 10^3/μl
- Lymphocyte ([1]; day 60): 71.45
- Neutrophils ([1]; day 60): 26
- Clotting time ([1]; day 75): 110.81 ± 5.86 s
- Eosinophil ([1]; day 75): 1.22%
- Hb ([1]; day 75): 12.82 ± 0.25 g/dL
- Platelet count ([1]; day 75): 1070 ± 22.9 10³/µL
- RBC ([1]; day 75): 7.36 ± 0.21 10^6/μl
- Reticulocyte ([1]; day 75): 1.70 ± 0.05%
- WBC ([1]; day 75): 8.71 ± 0.23 10^3/μl
- Lymphocyte ([1]; day 75): 71.12
- Neutrophils ([1]; day 75): 26.28
- Clotting time ([1]; day 90): 111.00 ± 5.57 s
- Eosinophil ([1]; day 90): 1.35%
- Hb ([1]; day 90): 12.78 ± 0.28 g/dL
- Platelet count ([1]; day 90): 1070 ± 22.9 10³/µL
- RBC ([1]; day 90): 7.37 ± 0.20 10^6/μl
- Reticulocyte ([1]; day 90): 1.73 ± 0.02%
- WBC ([1]; day 90): 8.76 ± 0.19 10^3/μl
- Lymphocyte ([1]; day 90): 70.82
- Neutrophils ([1]; day 90): 26.37
- HMG Co Reductase (HMG CoA Reductase [2]): 163.92 ± 4.02 U/mg
- HMG Co Reductase (HMG CoA Reductase [3]; HFD Continued): 224.83 ± 18.48 U/mg
- HMG Co Reductase (HMG CoA Reductase [3]; HFD Discontinued): 170.03 ± 2.71 U/mg
